Reference: ChEMBL document CHEMBL4402544, “Reasonably activating Nrf2: A long-term, effective and controllable strategy for neurodegenerative diseases” (Eur J Med Chem, 2020)
Values belong to the compound of their own block, whether it stands above or below them. Where a SMILES comes first, the peptide text is derived from it. [ ]: non-standard residue; d: D form. ξ: configuration not given here. ξCha = NC(CC1CCCCC1)C(=O)O; ξThz = O=C(O)C1CSCN1

Columns and labels:
[1] = target: T1, Nuclear factor erythroid 2-related factor 2 (Homo sapiens) (UniProt Q16236); assay: Activation of Nrf2 in human SK-N-SH cells expressing Nqo1 ARE-Luc reporter plasmid at 10 uM after 18 hrs by luciferase reporter gene assay; format: cell-based
T1 sequence (whole entry): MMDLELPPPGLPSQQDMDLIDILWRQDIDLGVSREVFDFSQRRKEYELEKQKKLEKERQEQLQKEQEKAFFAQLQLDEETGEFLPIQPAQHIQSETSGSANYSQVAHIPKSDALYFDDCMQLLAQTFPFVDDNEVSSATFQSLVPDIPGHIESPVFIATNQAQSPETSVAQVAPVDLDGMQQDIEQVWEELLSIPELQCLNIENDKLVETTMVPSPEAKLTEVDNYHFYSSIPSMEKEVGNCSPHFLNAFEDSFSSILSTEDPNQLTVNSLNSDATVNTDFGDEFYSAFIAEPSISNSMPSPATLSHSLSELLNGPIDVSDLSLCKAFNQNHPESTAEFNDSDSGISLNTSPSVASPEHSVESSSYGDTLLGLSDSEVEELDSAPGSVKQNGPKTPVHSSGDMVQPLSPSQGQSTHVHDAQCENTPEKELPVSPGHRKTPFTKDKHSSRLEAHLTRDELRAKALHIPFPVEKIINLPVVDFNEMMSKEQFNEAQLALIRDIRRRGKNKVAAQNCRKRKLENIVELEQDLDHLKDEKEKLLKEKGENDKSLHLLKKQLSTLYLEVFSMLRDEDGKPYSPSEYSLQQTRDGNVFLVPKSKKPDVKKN

[2] = Neuroprotection activity in human MC65 cells; format: functional, cell-based
[3] = target: Kelch-like ECH-associated protein 1 (Homo sapiens, UniProt Q14145); assay: Binding affinity to Keap1 (unknown origin)
Sequence of Kelch-like ECH-associated protein 1 (Q14145 whole entry): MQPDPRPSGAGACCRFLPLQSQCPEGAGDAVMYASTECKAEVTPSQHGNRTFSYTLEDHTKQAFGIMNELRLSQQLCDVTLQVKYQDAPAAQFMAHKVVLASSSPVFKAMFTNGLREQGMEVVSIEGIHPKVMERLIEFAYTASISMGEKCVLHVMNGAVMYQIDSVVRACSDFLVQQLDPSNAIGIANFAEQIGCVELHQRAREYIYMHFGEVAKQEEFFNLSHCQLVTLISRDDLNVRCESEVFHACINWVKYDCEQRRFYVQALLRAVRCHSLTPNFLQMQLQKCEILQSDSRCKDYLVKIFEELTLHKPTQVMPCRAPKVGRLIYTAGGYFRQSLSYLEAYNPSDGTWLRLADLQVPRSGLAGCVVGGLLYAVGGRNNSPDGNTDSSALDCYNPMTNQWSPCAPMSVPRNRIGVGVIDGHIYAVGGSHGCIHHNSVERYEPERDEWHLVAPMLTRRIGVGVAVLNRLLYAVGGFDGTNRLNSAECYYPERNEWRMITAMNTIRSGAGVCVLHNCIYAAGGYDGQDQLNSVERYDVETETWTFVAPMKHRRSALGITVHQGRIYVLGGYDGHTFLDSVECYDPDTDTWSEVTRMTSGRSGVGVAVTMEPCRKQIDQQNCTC

[4] = target: T1, Nuclear factor erythroid 2-related factor 2 (Homo sapiens); assay: Activation of Nrf2 (unknown origin) assessed as induction of ARE at 60 uM

fold change (FC) [1]: > 4
SMILES: C[C@@H]1C(NC(=O)c2ccccc2O)=CC(=O)[C@@H]2O[C@H]12

SMILES: COc1ccc2[nH]cc(CCNC(=O)CC(=O)CCc3ccc(O)cc3)c2c1
EC50 [2]: 27.6 nM

IC50 [3]: 31 nM
SMILES: C[C@@H](O)[C@H](NC(=O)[C@H](CCC(=O)O)NC(=O)C1CSCN1C(=O)[C@@H](N)CC(=O)O)C(=O)NCC(=O)N[C@@H](CCC(=O)O)C(=O)NC(CC1CCCCC1)C(=O)O (some centres undefined) (H-D[ξThz]ETGE[ξCha]-OH)

fold change (FC) [4]: 30.7
SMILES: C/C=C/C(=O)Oc1ccc2[nH]cc(CCNC(C)=O)c2c1
